According to ChEMBL document CHEMBL1143861, “Chemical modulators of heat shock protein 70 (Hsp70) by sequential, microwave-accelerated reactions on solid phase” (Bioorg Med Chem Lett, 2008):
Active and inactive are the calls of the source. The rule behind the calls is not given here.

Columns and labels:
[1] = Activity against bovine Hsp70 ATPase activity; design: species or system Bos taurus
[2] = Activity against Escherichia coli DnaK ATPase activity
[3] = test system: Escherichia coli; experiment: (§1) Activation of Escherichia coli DnaK ATPase activity
[4] = Activation of bovine Hsp70 ATPase activity; design: species or system Bos taurus
[5] = as §1
[6] = Inhibition of bovine Hsp70 ATPase activity; design: species or system Bos taurus
[7] = Inhibition of Escherichia coli DnaK ATPase activity

SMILES | EC50 [1] [µM] | EC50 [2] [µM] | further results
CCOC(=O)C1=C(C)N(CCCC(=O)N[C@H](CC(=O)N[C@H](CC(=O)NCCC(=O)O)c2ccccc2)CC(C)C)C(=O)NC1c1ccc(Br)cc1 (some centres undefined) | > 400 | > 400 | –
CCOC(=O)C1=C(C)N(CCCC(=O)OC)C(=O)NC1c1ccc(Br)cc1 (centres undefined) | – | – | Activity [3]: inactive; EC50 [4]: 213 µM
CCOC(=O)C1=C(C)N(CCCC(=O)N[C@H](CC(=O)NCCC(=O)O)C(C)C)C(=O)NC1c1ccc(Br)cc1 (some centres undefined) | > 400 | > 400 | –
CCOC(=O)C1=C(C)N(CCCC(=O)N[C@H](CC(=O)NCCC(=O)O)Cc2cccc3ccccc23)C(=O)NC1c1ccc(Br)cc1 (some centres undefined) | – | – | EC50 [5]: 190 µM; EC50 [4]: 179 µM
CCOC(=O)C1=C(C)N(CCCC(=O)NCCC(=O)NCCC(=O)NCCC(=O)O)C(=O)NC1c1ccc(Br)cc1 (centres undefined) | > 400 | > 400 | –
CCOC(=O)C1=C(C)N(CCCC(=O)N[C@@H](CCCCN)CC(=O)N[C@H](CC(=O)NCCC(=O)O)[C@@H](C)CC)C(=O)NC1c1ccc(Br)cc1 (some centres undefined) | – | – | Activity [3]: inactive; EC50 [4]: 352 µM
CCOC(=O)C1=C(C)N(CCCC(=O)N[C@H](CC(=O)N[C@H](CC(=O)NCCC(=O)O)CC(C)C)CC(C)C)C(=O)NC1c1ccc(Br)cc1 (some centres undefined) | > 400 | > 400 | –
CCOC(=O)C1=C(C)N(CCCC(=O)N[C@@H](CCc2ccccc2)CC(=O)NCCC(=O)O)C(=O)NC1c1ccc(Br)cc1 (some centres undefined) | – | – | Activity [3]: inactive; EC50 [4]: 190 µM
CCOC(=O)C1=C(C)N(CCCC(=O)NCCC(=O)NCCC(=O)O)C(=O)NC1c1ccc(Br)cc1 (centres undefined) | > 400 | > 400 | –
CCOC(=O)C1=C(C)N(CCCC(=O)N[C@@H](CCc2ccccc2)CC(=O)N[C@@H](CCCCN)CC(=O)NCCC(=O)O)C(=O)NC1c1ccc(Br)cc1 (some centres undefined) | – | – | EC50 [6]: 265 µM; EC50 [7]: 325 µM
CCOC(=O)C1=C(C)N(CCCC(=O)N[C@H](CC(=O)NCCC(=O)O)[C@@H](C)CC)C(=O)NC1c1ccc(Br)cc1 (some centres undefined) | > 400 | > 400 | –
CCOC(=O)C1=C(C)N(CCCC(=O)O)C(=O)NC1c1ccc(Br)cc1 (centres undefined) | > 400 | > 400 | –
CCOC(=O)C1=C(C)N(CCCC(=O)N[C@H](CC(=O)NCCC(=O)O)CC(C)C)C(=O)NC1c1ccc(Br)cc1 (some centres undefined) | > 400 | > 400 | –
CCOC(=O)C1=C(C)N(CCCC(=O)N[C@H](CC(=O)N[C@H](CC(=O)NCCC(=O)O)Cc2cccc3ccccc23)C(C)C)C(=O)NC1c1ccc(Br)cc1 (some centres undefined) | – | – | Activity [3]: inactive; EC50 [4]: 255 µM
CCOC(=O)C1=C(C)N(CCCC(=O)N[C@H](CC(=O)NCCC(=O)O)c2ccccc2)C(=O)NC1c1ccc(Br)cc1 (some centres undefined) | > 400 | > 400 | –
CCOC(=O)C1=C(C)N(CCCC(=O)N[C@@H](CCCCN)CC(=O)NCCC(=O)O)C(=O)NC1c1ccc(Br)cc1 (some centres undefined) | > 400 | > 400 | –
CCOC(=O)C1=C(C)N(CCCC(=O)N[C@@H](CCCCN)CC(=O)N[C@@H](CCc2ccccc2)CC(=O)NCCC(=O)O)C(=O)NC1c1ccc(Br)cc1 (some centres undefined) | – | – | EC50 [6]: 105 µM; EC50 [7]: 107 µM
